Laboratory results published in patent US20150105252A1, “SUBSTITUTED PYRAZOLES AS HERBICIDES” (E I DU PONT DE NEMOURS AND COMPANY, priority 2013, published 2015).

Key:
[1] = system: lambsquarters; test: Test D preemergence; format: in vivo, Chenopodium album; settings: scale 0 to 100
Description: (§1) Seeds of plant species selected from bluegrass (annual bluegrass, Poa annua), blackgrass (Alopecurus myosuroides), canarygrass (littleseed canarygrass, Phalaris minor), chickweed (common chickweed, Stellaria media), galium (catchweed bedstraw, Galium aparine), bromegrass, downy (downy bromegrass, Bromus tectorum), field poppy (Papaver rhoeas), field violet (Viola arvensis), foxtail, green (green foxtail, Setaria viridis), deadnettle (henbit deadnettle, Lamium amplexicaule), ryegrass, Italian (Italian ryegrass, Lolium multiflorum), kochia (Kochia scoparia), lambsquarters (Chenopodium album), oilseed rape (Brassica napus), pigweed (redroot pigweed, Amaranthus retroflexus), chamomile (scentless chamomile, Matricaria inodora), speedwell (bird's-eye speedwell, Veronica persica), barley, spring (spring barley, Hordeum vulgare), wheat, spring (spring wheat, Triticum aestivum), buckwheat, wild (wild buckwheat, Polygonum convolvulus), mustard, wild (wild mustard, Sinapis arvensis), oat, wild (wild oat, Avena fatua), radish, wild (wild radish, Raphanus raphanistrum), windgrass (Apera spica-venti), Russian thistle (Salsola kali), barley, winter (winter barley, Hordeum vulgare), and wheat, winter (winter wheat, Triticum aestivum) were planted into a silt loam soil and treated preemergence with test chemicals formulated in a non-phytotoxic solvent mixture which included a surfactant.
(§2) At the same time, these species were planted in pots containing Redi-Earth® planting medium (Scotts Company, 14111 Scottslawn Road, Marysville, Ohio 43041) comprising spaghnum peat moss, vermiculite, wetting agent and starter nutrients and treated with postemergence applications of the test chemicals formulated in the same manner. Plants ranged in height from 2 to 18 cm (1- to 4-leaf stage). Treated plants and controls were maintained in a controlled growth environment for 14 to 21 days after which time all species were compared to controls and visually evaluated. Plant response ratings, summarized in Table D, are based on a scale of 0 to 100 where 0 is no effect and 100 is complete control. A dash (-) response means no test result.

[2] = system: speedwell; test: Test D postemergence; format: in vivo, Veronica persica; settings: scale 0 to 100
Outline: (§3)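 Seeds are planted in silt loam and treated preemergence, while parallel plantings in a peat moss/vermiculite medium with starter nutrients receive postemergence sprays at the 1- to 4-leaf stage. All formulations use a non-phytotoxic solvent mixture with surfactant. Plants are kept in a controlled growth environment and rated visually after 14–21 days.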

[3] = system: ryegrass, Italian; test: Test D postemergence; format: in vivo, Lolium multiflorum; settings: scale 0 to 100
Outline: as §3

[4] = system: field poppy; test: Test D preemergence; format: in vivo, Papaver rhoeas; settings: scale 0 to 100
Description: as §1, §2

[5] = system: hairy beggarticks; test: Test F preemergence; format: in vivo, Bidens pilosa
Description: Seeds of plant species selected from corn (Zea mays), soybean (Glycine max), velvetleaf (Abutilon theophrasti), lambsquarters (Chenopodium album), wild poinsettia (Euphorbia heterophylla), pigweed, palmer (palmer pigweed, Amaranthus palmeri), common waterhemp (Amaranthus rudis), surinam grass (Brachiaria decumbens), large crabgrass (Digitaria sanguinalis), crabgrass, Brazil (Brazilian crabgrass, Digitaria horizontalis), fall panicum (Panicum dichotomiflorum), giant foxtail (Setaria faberii), green foxtail (Setaria viridis), goosegrass (Eleusine indica), johnsongrass (Sorghum halepense), common ragweed (Ambrosia elation), barnyardgrass (Echinochloa crus-galli), southern sandbur (Cenchrus echinatus), arrowleaf sida (Sida rhombifolia), Italian ryegrass (Lolium multiflorum), dayflower, VA (Virginia (VA) dayflower, Commelina virginica), field bindweed (Convolvulus arvensis), cocklebur (common cocklebur, Xanthium strumarium), morningglory (Ipomoea coccinea), nightshade (eastern black nightshade, Solanum ptycanthum), kochia (Kochia scoparia), yellow nutsedge (Cyperus esculentus), and hairy beggarticks (Bidens pilosa), were planted into a silt loam soil and treated preemergence with test chemicals formulated in a non-phytotoxic solvent mixture which included a surfactant.
At the same time, plants from these crop and weed species and also horseweed (Canada horseweed, Conyza canadensis), smartweed (ladysthumb smartweed, Polygonum persicaria), waterhemp_RES1, (ALS & Triazine resistant common waterhemp, Amaranthus rudis), and waterhemp_RES2, (ALS & HPPD resistant common waterhemp, Amaranthus rudis) were treated with postemergence applications of test chemicals formulated in the same manner. Plants ranged in height from 2 to 18 cm for postemergence treatments (1- to 4-leaf stage). Treated plants and controls were maintained in a greenhouse for 14 to 21 days, after which time all species were compared to controls and visually evaluated. Plant response ratings, summarized in Table F, are based on a scale of 0 to 100 where 0 is no effect and 100 is complete control. A dash (-) response means no test result.

[6] = system: wheat, winter; test: Test D preemergence; format: in vivo, Triticum aestivum; settings: scale 0 to 100
Outline: as §3

[7] = system: wheat, spring; test: Test D preemergence; format: in vivo, Triticum aestivum; settings: scale 0 to 100
Outline: as §3

[8] = system: barley, spring; test: Test D preemergence; format: in vivo, Hordeum vulgare; settings: scale 0 to 100
Outline: as §3

[9] = system: barley, winter; test: Test D preemergence; format: in vivo, Hordeum vulgare; settings: scale 0 to 100
Outline: as §3

[10] = system: speedwell; test: Test D preemergence; format: in vivo, Veronica persica; settings: scale 0 to 100
Outline: as §3

[11] = system: chickweed; test: Test D postemergence; format: in vivo, Stellaria media; settings: scale 0 to 100
Description: as §1, §2

[12] = system: southern sandbur; test: Test F preemergence; format: in vivo, Cenchrus echinatus
Outline: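 Planting in silt loam, then preemergence treatment; postemergence treatment in parallel on 1- to 4-leaf seedlings (2–18 cm). Compound carried in a non-phytotoxic solvent mixture with surfactant. Greenhouse, 14–21 days; visual comparison with controls, scored 0 (none) to 100 (full control).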

[13] = system: mustard, wild; test: Test D preemergence; format: in vivo, Sinapis arvensis; settings: scale 0 to 100
Description: as §1, §2

[14] = system: pigweed; test: Test D preemergence; format: in vivo, Amaranthus retroflexus; settings: scale 0 to 100
Outline: as §3

[15] = Preemergence, 31 g ai/ha, scale 0 to 100
[16] = Preemergence, 62 g ai/ha, scale 0 to 100
[17] = Preemergence, 125 g ai/ha, scale 0 to 100
[18] = preemergence, 8 g ai/ha, scale 0 to 100, 100 is complete control
[19] = preemergence, 16 g ai/ha, scale 0 to 100, 100 is complete control

## CCc1cc(C(=O)NCC(F)(F)F)nn1Cc1ccnc(C(F)(F)F)c1 [Compound 78, 5-ethyl-N-(2,2,2-trifluoroethyl)-1-[[(2-trifluoromethyl)-4-pyridinyl]methyl]-1H-pyrazole-3-carboxamide]
[1]; 31 g ai/ha
  Plant response rating, Lambsquarters: 95
[1]; 62 g ai/ha
  Plant response rating, Lambsquarters: 100
[1]; 125 g ai/ha
  Plant response rating, Lambsquarters: 100
[1]; 250 g ai/ha
  Plant response rating, Lambsquarters: 100
[2]; Postemergence, 31 g ai/ha
  Speedwell plant response rating: 45
[2]; Postemergence, 125 g ai/ha
  Speedwell plant response rating: 80
[2]; Postemergence, 250 g ai/ha
  Speedwell plant response rating: 90
[2]; postemergence, 62 g ai/ha
  Speedwell plant response rating: 60
[3]; Postemergence, 31 g ai/ha
  Ryegrass, Italian plant response rating: 5
[3]; Postemergence, 125 g ai/ha
  Ryegrass, Italian plant response rating: 10
[3]; Postemergence, 250 g ai/ha
  Ryegrass, Italian plant response rating: 45
[3]; postemergence, 62 g ai/ha
  Ryegrass, Italian plant response rating: 5
[4]; 31 g ai/ha
  Plant response rating, Field Poppy: 100
[4]; 62 g ai/ha
  Plant response rating, Field Poppy: 100
[4]; 125 g ai/ha
  Plant response rating, Field Poppy: 100
[4]; 250 g ai/ha
  Plant response rating, Field Poppy: 100
[5]; [15]
  Plant response rating, Hairy Beggarticks: 25
[5]; [16]
  Plant response rating, Hairy Beggarticks: 35
[5]; [17]
  Plant response rating, Hairy Beggarticks: 80
[5]; [18]
  Plant response rating, Hairy Beggarticks: 0
[5]; [19]
  Plant response rating, Hairy Beggarticks: 20
[6]; 31 g ai/ha
  Plant response rating, Wheat, Winter: 15
[6]; 62 g ai/ha
  Plant response rating, Wheat, Winter: 50
[6]; 125 g ai/ha
  Plant response rating, Wheat, Winter: 80
[6]; 250 g ai/ha
  Plant response rating, Wheat, Winter: 95
[7]; 31 g ai/ha
  Plant response rating, Wheat, Spring: 5
[7]; 62 g ai/ha
  Plant response rating, Wheat, Spring: 55
[7]; 125 g ai/ha
  Plant response rating, Wheat, Spring: 80
[7]; 250 g ai/ha
  Plant response rating, Wheat, Spring: 100
[8]; 31 g ai/ha
  Plant response rating, Barley, Spring: 20
[8]; 62 g ai/ha
  Plant response rating, Barley, Spring: 65
[8]; 125 g ai/ha
  Plant response rating, Barley, Spring: 90
[8]; 250 g ai/ha
  Plant response rating, Barley, Spring: 100
[9]; 31 g ai/ha
  Plant response rating, Barley, Winter: 25
[9]; 62 g ai/ha
  Plant response rating, Barley, Winter: 50
[9]; 125 g ai/ha
  Plant response rating, Barley, Winter: 65
[9]; 250 g ai/ha
  Plant response rating, Barley, Winter: 95
[10]; 31 g ai/ha
  Plant response rating, Speedwell: 100
[10]; 62 g ai/ha
  Plant response rating, Speedwell: 100
[10]; 125 g ai/ha
  Plant response rating, Speedwell: 100
[10]; 250 g ai/ha
  Plant response rating, Speedwell: 100
[11]; Postemergence, 31 g ai/ha
  Chickweed plant response rating: 25
[11]; Postemergence, 125 g ai/ha
  Chickweed plant response rating: 70
[11]; Postemergence, 250 g ai/ha
  Chickweed plant response rating: 80
[11]; postemergence, 62 g ai/ha
  Chickweed plant response rating: 50
[12]; [15]
  Plant response rating, Southern Sandbur: 5
[12]; [16]
  Plant response rating, Southern Sandbur: 80
[12]; [17]
  Plant response rating, Southern Sandbur: 95
[12]; [18]
  Plant response rating, Southern Sandbur: 0
[12]; [19]
  Plant response rating, Southern Sandbur: 0
[13]; 31 g ai/ha
  Plant response rating, Mustard, Wild: 100
[13]; 62 g ai/ha
  Plant response rating, Mustard, Wild: 100
[13]; 125 g ai/ha
  Plant response rating, Mustard, Wild: 100
[13]; 250 g ai/ha
  Plant response rating, Mustard, Wild: 100
[14]; 31 g ai/ha
  Plant response rating, Pigweed: 100
[14]; 62 g ai/ha
  Plant response rating, Pigweed: 100
[14]; 125 g ai/ha
  Plant response rating, Pigweed: 100
[14]; 250 g ai/ha
  Plant response rating, Pigweed: 100

## CCOc1cc(C(=O)NC2CC2)nn1Cc1ccnc(C(F)(F)F)c1 [Compound 189]
[1]; 62 g ai/ha
  Plant response rating, Lambsquarters: 100
[1]; 125 g ai/ha
  Plant response rating, Lambsquarters: 100
[1]; 250 g ai/ha
  Plant response rating, Lambsquarters: 100
[2]; Postemergence, 31 g ai/ha
  Speedwell plant response rating: 70
[2]; Postemergence, 125 g ai/ha
  Speedwell plant response rating: 85
[2]; Postemergence, 250 g ai/ha
  Speedwell plant response rating: 90
[2]; postemergence, 62 g ai/ha
  Speedwell plant response rating: 70
[3]; Postemergence, 31 g ai/ha
  Ryegrass, Italian plant response rating: 10
[3]; Postemergence, 125 g ai/ha
  Ryegrass, Italian plant response rating: 20
[3]; Postemergence, 250 g ai/ha
  Ryegrass, Italian plant response rating: 30
[3]; postemergence, 62 g ai/ha
  Ryegrass, Italian plant response rating: 10
[4]; 62 g ai/ha
  Plant response rating, Field Poppy: 100
[4]; 125 g ai/ha
  Plant response rating, Field Poppy: 100
[4]; 250 g ai/ha
  Plant response rating, Field Poppy: 100
[6]; 62 g ai/ha
  Plant response rating, Wheat, Winter: 15
[6]; 125 g ai/ha
  Plant response rating, Wheat, Winter: 65
[6]; 250 g ai/ha
  Plant response rating, Wheat, Winter: 85
[7]; 62 g ai/ha
  Plant response rating, Wheat, Spring: 10
[7]; 125 g ai/ha
  Plant response rating, Wheat, Spring: 40
[7]; 250 g ai/ha
  Plant response rating, Wheat, Spring: 80
[8]; 31 g ai/ha
  Plant response rating, Barley, Spring: 0
[8]; 62 g ai/ha
  Plant response rating, Barley, Spring: 40
[8]; 125 g ai/ha
  Plant response rating, Barley, Spring: 70
[8]; 250 g ai/ha
  Plant response rating, Barley, Spring: 85
[9]; 31 g ai/ha
  Plant response rating, Barley, Winter: 10
[9]; 62 g ai/ha
  Plant response rating, Barley, Winter: 35
[9]; 125 g ai/ha
  Plant response rating, Barley, Winter: 60
[9]; 250 g ai/ha
  Plant response rating, Barley, Winter: 65
[10]; 62 g ai/ha
  Plant response rating, Speedwell: 100
[10]; 125 g ai/ha
  Plant response rating, Speedwell: 100
[10]; 250 g ai/ha
  Plant response rating, Speedwell: 100
[11]; Postemergence, 31 g ai/ha
  Chickweed plant response rating: 75
[11]; Postemergence, 125 g ai/ha
  Chickweed plant response rating: 70
[11]; Postemergence, 250 g ai/ha
  Chickweed plant response rating: 85
[11]; postemergence, 62 g ai/ha
  Chickweed plant response rating: 75
[13]; 62 g ai/ha
  Plant response rating, Mustard, Wild: 100
[13]; 125 g ai/ha
  Plant response rating, Mustard, Wild: 100
[13]; 250 g ai/ha
  Plant response rating, Mustard, Wild: 100
[14]; 62 g ai/ha
  Plant response rating, Pigweed: 95
[14]; 125 g ai/ha
  Plant response rating, Pigweed: 100
[14]; 250 g ai/ha
  Plant response rating, Pigweed: 100
